What all share (assay): DTP human tumour cell line panel, 48 h
Assay [1] deals with SW-620 colon.
Assay [2] relates to RPMI-8226 leukemia.
For assay [3], the system named is NCI-H226 lung.
Assay [4] has as its system TK-10 renal.
Assay [5] has as its system T-47D breast.
Assay [6] relates to MOLT-4 leukemia.
The subject of assay [7] is OVCAR-4 ovarian.
Assay [8] relates to MALME-3M melanoma.

Usually GI50 stands for the concentration that inhibits growth by half. One may read the TGI as the concentration at which net growth stops. A higher TGI goes with lower sensitivity of the cells.

The structures appear in SMILES notation.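 In this assay, cells in 96-well plates receive the compound at five concentrations for 48 hours. Endpoints are linearly interpolated between the surrounding concentrations. Here, GI50 denotes the concentration required for 50% inhibition of growth. The concentration for full growth arrest is given as TGI.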 A value given as a limit tells only on which side of the number the result lay.

Consider `Nc1ccccc1C#C/C=C\C#Cc1ccc(F)cc1F`, for which the GI50 in assay [1] was 36.9 µM; in assay [2] it was 1.36 µM; in assay [3], 17.3 µM; in assay [4], 11.2 µM; in assay [5], 26 µM; in assay [6] it was 3.05 µM. The GI50 in assay [7] was 37.1 µM; in assay [8], 6.11 µM. Moreover, the TGI was above 100 µM in assay [1]; 34.3 µM in assay [2]; 35.8 µM in assay [3]; 30.4 µM in assay [4]; above 100 µM in assay [5]; above 100 µM in assay [6]. The figures for the TGI in assay [7] and in assay [8] were above 100 µM and 22.5 µM, respectively.
As to `O=C1OCC(c2ccc(O)c(O)c2)=C1c1cc(O)c(O)c(O)c1`, the GI50 is 21.1 µM in assay [1]; 26.2 µM in assay [2]; 69 µM in assay [3]; 73.1 µM in assay [4]; 23.2 µM in assay [5]; 12.9 µM in assay [6]. In addition, the GI50 in assay [7] is 26.2 µM; in assay [8], above 100 µM. Moreover, the TGI in assay [1] was 42.8 µM; in assay [2] it was 79 µM; in assay [3], above 100 µM; in assay [4] it was above 100 µM; in assay [5], 60.2 µM; in assay [6], 27.8 µM. Besides, the TGI was 70.1 µM in assay [7] and above 100 µM in assay [8].
Turning to `CCCOC(=O)N[C@H]1CCc2c(Br)c(OC)c(OC)c(OC)c2-c2ccc(SC)c(=O)cc21`, the GI50 in assay [1] was 0.0245 µM; in assay [2] it was 0.0259 µM; in assay [3], 0.0341 µM; in assay [4], 4.67 µM; in assay [5], 14.1 µM; in assay [6], 0.0382 µM. Further, the GI50 in assay [7] is 0.158 µM; in assay [8] it was 0.0348 µM. Also, the TGI is above 100 µM in assay [1]; 10.4 µM in assay [2]; 6.71 µM in assay [3]; above 76.6 µM in assay [4]; above 100 µM in assay [5]; above 100 µM in assay [6]. The TGI in assay [7] is above 100 µM; in assay [8] it was 27.2 µM.
As for `Cn1ncc2c(Nc3ccc(Br)cc3)nc(Nc3ccc(Br)cc3)nc21`, the GI50 in assay [1] was 2.93 µM; in assay [2], 2.4 µM; in assay [3], 2.62 µM; in assay [4] it was 4.75 µM; in assay [5], 2.7 µM; in assay [6], 0.346 µM. The GI50 in assay [7] was 3.51 µM; in assay [8], 3.32 µM. The TGI in assay [1] came to 8.97 µM; in assay [2], 8.87 µM; in assay [3] it was 13.4 µM; in assay [4] it was 19 µM; in assay [5], 14.6 µM; in assay [6], 5.23 µM. The TGI in assay [7] was 16.1 µM; in assay [8] it was 14.7 µM.
In the case of `O=C1Nc2ccc(F)c3c(OCCO)cc(-c4ccc[nH]4)c1c23`, the GI50 in assay [1] was 0.837 µM; in assay [2], 1.82 µM; in assay [3], 1.47 µM; in assay [4], 1.41 µM; in assay [5] it was 0.513 µM; in assay [6], 1.21 µM. In addition, the GI50 was 1.44 µM in assay [7] and 3.47 µM in assay [8]. Further, the TGI amounted to 8.23 µM in assay [1]; 8.18 µM in assay [2]; 12.8 µM in assay [3]; 6.42 µM in assay [4]; 1.52 µM in assay [5]; 10.3 µM in assay [6]. For the same compound, the TGI in assay [7] is 12.1 µM; in assay [8], 11.5 µM.
For the compound `C[C@@H]1O[C@@H](O[C@H]2C[C@@H](O)[C@]3(CO)C4C(CC[C@]3(O)C2)[C@@]2(O)CC[C@H](C3=CC(=O)OC3)[C@@]2(C)C[C@H]4O)[C@H](O)[C@H](O)[C@H]1O` (stereo partly specified), the GI50 was 0.022 µM in assay [1]; 0.0672 µM in assay [2]; 0.0741 µM in assay [3]; 0.0148 µM in assay [4]; 0.0215 µM in assay [5]; 0.0128 µM in assay [6]. Moreover, the GI50 in assay [7] is 0.0116 µM; in assay [8] it was 0.0197 µM. In addition, the TGI in assay [1] was 0.0869 µM; in assay [2], 1.76 µM; in assay [3], 0.154 µM; in assay [4] it was 0.0384 µM; in assay [5] it was 0.0847 µM; in assay [6], 0.0314 µM. Besides, the values for the TGI in assay [7] and in assay [8] were 0.0308 µM and 0.0828 µM, respectively.
As to `CCOc1ccc(NC(=O)Nc2cc(C(C)C)ccc2C)cc1`, the GI50 in assay [1] is 11.2 µM; in assay [2] it was 10.9 µM; in assay [3], 10.2 µM; in assay [4], 2.21 µM; in assay [5], 8.94 µM; in assay [6], 9.57 µM. Moreover, the GI50 in assay [7] was 3.33 µM; in assay [8] it was 3.74 µM. In addition, the TGI is above 100 µM in assay [1]; above 65.8 µM in assay [2]; 50.1 µM in assay [3]; 6.61 µM in assay [4]; above 100 µM in assay [5]; above 100 µM in assay [6]. For the same compound, the TGI in assay [7] is 11.5 µM; in assay [8] it was 18.2 µM.
In the case of `O=C(NO)c1ccc(C(=O)NO)cc1`, the TGI in assay [1] was above 100 µM; in assay [2], above 100 µM; in assay [3], above 100 µM; in assay [4], above 100 µM; in assay [5], above 100 µM; in assay [6], 92.9 µM. Further, the results for the TGI in assay [7] and in assay [8] were above 100 µM and 51.4 µM, respectively.
With `CO/N=C(\c1ccccc1)c1cnn(-c2ccccc2)c1N`, the GI50 in assay [1], in assay [2], in assay [3], in assay [4], in assay [5] and in assay [6] was above 25 µM throughout. The GI50 in assay [7] and in assay [8] was above 25 µM each time. The TGI in assay [1], in assay [2], in assay [3], in assay [4], in assay [5] and in assay [6] was above 25 µM each time. Moreover, the concentration for total growth inhibition (TGI) in assay [7] and in assay [8] was above 25 µM each time.
